Laboratory results published in ChEMBL document CHEMBL1201862, “PubChem BioAssay data set” (2004).
Calls of active or inactive are those of the source.

Tests used:
[1] = fluconazole-exposed Candida albicans growth modulators – fluorescence, retest, confirmation (AID 2467); assay type: functional, cell-based
[2] = target: T1, DNA repair and recombination protein RAD54-like (Homo sapiens, UniProt Q92698); assay: RAD54 Holliday junction migration blockers – biochemical, fluorescence, cherry-picked samples, dose series, confirmation (AID 651657); assay type: functional
T1 sequence (Q92698 whole entry): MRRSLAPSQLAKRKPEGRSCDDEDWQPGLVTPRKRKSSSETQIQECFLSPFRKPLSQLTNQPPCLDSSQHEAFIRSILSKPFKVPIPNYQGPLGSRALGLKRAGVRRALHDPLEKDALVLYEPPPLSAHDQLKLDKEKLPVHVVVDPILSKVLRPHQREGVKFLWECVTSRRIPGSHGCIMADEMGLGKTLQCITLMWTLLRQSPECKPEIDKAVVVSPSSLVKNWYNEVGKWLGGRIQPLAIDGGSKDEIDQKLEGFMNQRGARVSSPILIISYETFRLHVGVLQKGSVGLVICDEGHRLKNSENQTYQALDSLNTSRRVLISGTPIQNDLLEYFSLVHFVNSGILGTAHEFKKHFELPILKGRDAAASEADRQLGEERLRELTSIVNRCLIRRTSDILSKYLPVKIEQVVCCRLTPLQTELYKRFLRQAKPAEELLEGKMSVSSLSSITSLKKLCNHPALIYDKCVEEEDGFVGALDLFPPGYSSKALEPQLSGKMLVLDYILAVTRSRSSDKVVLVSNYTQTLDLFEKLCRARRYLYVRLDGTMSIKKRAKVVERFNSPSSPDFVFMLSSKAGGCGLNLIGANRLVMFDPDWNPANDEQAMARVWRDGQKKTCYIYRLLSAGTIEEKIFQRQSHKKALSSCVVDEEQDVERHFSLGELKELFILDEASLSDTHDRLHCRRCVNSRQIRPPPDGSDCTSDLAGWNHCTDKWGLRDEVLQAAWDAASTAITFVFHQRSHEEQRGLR

[3] = viability of HCT116 lacking mutant beta-catenin – cell-based, human colon tumor, dose response (AID 1045); assay type: functional;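 further: HCT116 colon tumor cells with beta catenin knocked out; cells exposed to compound for 60 hours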
[4] = NIH-3T3 fibroblast cytotoxicity, dose response, cytotoxicity control, cell-based, fluorescence, Alamar Blue, secondary assay (AID 2327); assay type: functional;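 further: NIH-3T3 mouse fibroblasts cultured with fluconazole at 8 µg/mL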
[5] = viability of PTEN-deleted HCT116 cells – cell-based, HCT116 PTEN knockout, dose response (AID 1047); assay type: functional;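 further: HCT116 colon tumor cells with PTEN knocked out; cells exposed to compound for 60 hours before readout; potency for loss of cell viability measured by luminescence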
CAAX prenyl protease 1 = target: T2, CAAX prenyl protease 1 (Saccharomyces cerevisiae S288c, UniProt P47154); assay: yeast CAAX protease Ste24 inhibition – biochemical, S. cerevisiae, plate reader, cherry-pick, dose response (AID 488815)
T2 sequence (P47154 whole entry): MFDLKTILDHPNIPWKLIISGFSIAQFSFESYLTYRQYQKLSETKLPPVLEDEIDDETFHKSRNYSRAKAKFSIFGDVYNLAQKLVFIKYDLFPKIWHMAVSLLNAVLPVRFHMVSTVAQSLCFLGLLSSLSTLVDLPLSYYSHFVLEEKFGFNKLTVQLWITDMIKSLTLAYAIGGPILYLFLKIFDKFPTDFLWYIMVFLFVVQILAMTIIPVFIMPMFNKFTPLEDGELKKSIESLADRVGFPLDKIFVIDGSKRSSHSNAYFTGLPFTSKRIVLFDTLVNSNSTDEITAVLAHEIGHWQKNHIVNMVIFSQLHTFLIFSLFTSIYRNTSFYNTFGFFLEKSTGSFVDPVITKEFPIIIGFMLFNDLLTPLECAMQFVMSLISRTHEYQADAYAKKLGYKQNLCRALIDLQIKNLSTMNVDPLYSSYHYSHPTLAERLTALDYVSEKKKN

[6] = NIH3T3 cell viability loss – ATP luminescence, mouse fibroblasts, counter-screen, dose response (AID 2010); assay type: functional, cell-based;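 further: cells exposed to compound for about 90 hours before reading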
[7] = Trypanosoma cruzi growth suppression in host cells – NIH3T3 host cells, beta-gal luminescence, confirmation (AID 2044); assay type: functional, cell-based;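 further: intracellular parasites grown in NIH/3T3 mouse fibroblasts as host cells; luminescent beta-galactosidase reporter signal from transgenic T. cruzi replicating inside host cells; inhibitors lower the luminescence signal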
Exodeoxyribonuclease V = target: T3, Exodeoxyribonuclease V (Escherichia coli (strain K12), UniProt P04993+P07648+P08394); assay: RecBCD inhibition via phage-restricted bacterial growth – absorbance, V66 E. coli, mutant T4 phage, counter-screen for AddAB inhibitor project, dose response (AID 492957); assay type: functional, cell-based, Escherichia coli str. K-12 substr. MG1655
T3 sequence (P04993 whole entry): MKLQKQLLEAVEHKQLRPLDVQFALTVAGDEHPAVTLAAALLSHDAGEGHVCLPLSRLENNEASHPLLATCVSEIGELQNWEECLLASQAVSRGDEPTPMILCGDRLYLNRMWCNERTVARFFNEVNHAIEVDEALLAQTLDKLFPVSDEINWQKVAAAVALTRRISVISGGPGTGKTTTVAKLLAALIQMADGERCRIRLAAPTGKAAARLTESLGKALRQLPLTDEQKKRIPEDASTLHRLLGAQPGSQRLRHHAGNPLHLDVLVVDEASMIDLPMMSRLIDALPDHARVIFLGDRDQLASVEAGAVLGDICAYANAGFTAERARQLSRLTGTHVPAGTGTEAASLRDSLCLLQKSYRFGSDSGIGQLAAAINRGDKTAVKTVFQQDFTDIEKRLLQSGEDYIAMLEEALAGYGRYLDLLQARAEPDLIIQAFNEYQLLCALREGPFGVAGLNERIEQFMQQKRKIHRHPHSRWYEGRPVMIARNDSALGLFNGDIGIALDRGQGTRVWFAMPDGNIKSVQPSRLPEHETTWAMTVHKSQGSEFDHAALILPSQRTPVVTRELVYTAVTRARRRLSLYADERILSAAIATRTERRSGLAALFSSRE
T3 sequence (P07648 whole entry): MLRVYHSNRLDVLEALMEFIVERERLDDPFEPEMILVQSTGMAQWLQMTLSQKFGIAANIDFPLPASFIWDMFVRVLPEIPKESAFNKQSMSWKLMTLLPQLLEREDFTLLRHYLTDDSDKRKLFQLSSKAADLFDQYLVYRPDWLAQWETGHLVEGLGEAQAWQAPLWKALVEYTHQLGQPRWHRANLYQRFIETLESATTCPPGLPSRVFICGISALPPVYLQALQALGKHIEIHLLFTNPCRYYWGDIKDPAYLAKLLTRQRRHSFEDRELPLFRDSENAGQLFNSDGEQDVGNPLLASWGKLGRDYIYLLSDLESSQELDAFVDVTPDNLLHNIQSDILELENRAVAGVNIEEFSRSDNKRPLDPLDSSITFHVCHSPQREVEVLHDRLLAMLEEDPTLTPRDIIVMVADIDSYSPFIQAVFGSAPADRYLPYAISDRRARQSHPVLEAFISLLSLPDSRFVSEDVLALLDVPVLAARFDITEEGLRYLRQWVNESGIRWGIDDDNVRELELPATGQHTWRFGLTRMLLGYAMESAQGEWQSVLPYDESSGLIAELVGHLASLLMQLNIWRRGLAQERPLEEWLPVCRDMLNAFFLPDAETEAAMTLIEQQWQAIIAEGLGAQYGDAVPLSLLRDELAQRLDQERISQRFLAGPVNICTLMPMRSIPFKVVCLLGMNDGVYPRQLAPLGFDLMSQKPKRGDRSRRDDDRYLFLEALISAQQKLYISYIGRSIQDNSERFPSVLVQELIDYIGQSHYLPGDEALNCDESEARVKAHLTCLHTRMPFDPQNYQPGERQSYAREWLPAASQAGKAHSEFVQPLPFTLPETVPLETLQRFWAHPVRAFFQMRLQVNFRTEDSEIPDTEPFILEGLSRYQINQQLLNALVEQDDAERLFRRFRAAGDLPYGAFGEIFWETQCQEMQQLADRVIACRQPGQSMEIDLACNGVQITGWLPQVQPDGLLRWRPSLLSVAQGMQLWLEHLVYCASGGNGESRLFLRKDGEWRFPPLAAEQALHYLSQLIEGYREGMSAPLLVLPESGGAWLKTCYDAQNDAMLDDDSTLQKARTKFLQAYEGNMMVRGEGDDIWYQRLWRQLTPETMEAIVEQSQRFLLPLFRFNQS
T3 sequence (P08394 whole entry): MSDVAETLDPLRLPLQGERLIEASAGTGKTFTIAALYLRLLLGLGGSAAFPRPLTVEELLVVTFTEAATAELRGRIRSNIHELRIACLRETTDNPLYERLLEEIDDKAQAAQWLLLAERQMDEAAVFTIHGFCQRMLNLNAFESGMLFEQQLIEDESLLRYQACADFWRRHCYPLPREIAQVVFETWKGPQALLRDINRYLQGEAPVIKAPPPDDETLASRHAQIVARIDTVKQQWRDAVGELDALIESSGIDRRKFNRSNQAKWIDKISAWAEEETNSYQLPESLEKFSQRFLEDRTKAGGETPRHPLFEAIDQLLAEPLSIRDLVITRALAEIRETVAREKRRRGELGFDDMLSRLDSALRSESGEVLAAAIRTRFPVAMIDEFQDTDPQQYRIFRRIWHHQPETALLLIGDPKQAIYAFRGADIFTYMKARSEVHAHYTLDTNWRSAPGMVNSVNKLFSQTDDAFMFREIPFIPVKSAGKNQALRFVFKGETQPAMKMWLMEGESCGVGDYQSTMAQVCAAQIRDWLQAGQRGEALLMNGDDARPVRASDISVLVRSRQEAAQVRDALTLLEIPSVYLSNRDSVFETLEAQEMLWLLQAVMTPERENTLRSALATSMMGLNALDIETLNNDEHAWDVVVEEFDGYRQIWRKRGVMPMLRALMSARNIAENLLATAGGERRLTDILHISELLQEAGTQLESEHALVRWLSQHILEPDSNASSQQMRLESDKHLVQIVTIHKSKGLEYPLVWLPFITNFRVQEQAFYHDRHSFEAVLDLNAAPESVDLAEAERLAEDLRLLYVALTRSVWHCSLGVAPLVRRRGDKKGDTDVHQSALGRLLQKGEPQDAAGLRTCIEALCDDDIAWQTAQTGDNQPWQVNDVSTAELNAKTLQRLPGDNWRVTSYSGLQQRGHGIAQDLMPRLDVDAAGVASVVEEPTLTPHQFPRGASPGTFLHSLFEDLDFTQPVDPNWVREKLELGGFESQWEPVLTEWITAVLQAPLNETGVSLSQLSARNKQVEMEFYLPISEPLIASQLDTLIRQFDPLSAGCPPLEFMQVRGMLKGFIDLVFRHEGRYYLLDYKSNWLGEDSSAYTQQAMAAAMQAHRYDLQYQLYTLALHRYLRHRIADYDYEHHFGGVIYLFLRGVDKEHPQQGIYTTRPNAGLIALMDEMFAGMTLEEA

[8] = Counterscreen for AddAB inhibitors: absorbance-based bacterial cell-based high throughput dose response assay for inhibitors of bacterial viability. [Related pubchem assays (depositor defined):AID435030, AID449728, AID449731, AID488942, AID488955, AID488956]; assay type: functional
cells [9] = assay type: functional, cell-based
[10] = non-specific 3'UTR reporter inhibition in Clone20-Shn3RL – cell-based, Renilla luciferase, cherry-picked, counter-screen for Shn3 inhibitor project, dose response (AID 624133); assay type: functional
[11] = reduction of Shn3 3'UTR-driven luciferase in osteoblasts – cell-based, Clone20 osteoblasts, firefly luciferase, cherry-picked, dose response (AID 624132); assay type: functional;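 further: firefly luciferase luminescence from reporter carrying the Shn3 3'UTR in osteoblasts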
HEK293 = assay: EBV LMP1 TES2 canonical NF-kB signalling blockers – cell-based, HEK293, luciferase, cherry-pick, dose response (AID 588343); assay type: functional; conditions: Homo sapiens
INS1 = assay: INS-1E survival protection against cytokine death – cell-based, luminescence, retest, dose response (AID 449756); assay type: functional; conditions: Rattus norvegicus;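 further: cell death triggered by IL-1 beta plus TNF-alpha plus IFN-gamma mixture; protective hits raise ATP signal compared with cytokine alone wells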
cells [12] = assay type: functional, cell-based; remark: listed apart in the source
[13] = target: Heat shock protein HSP 90-alpha (Homo sapiens, UniProt P07900); assay type: functional, organism-based
[14] = loss of viability in HepG2 cells – cell-based, CellTiter-Glo, cherry-picked, cytotoxicity control for Shn3 inhibitor project, dose response (AID 624134); assay type: functional

CCc1nc(Nc2ccncc2)c2oc3ccccc3c2n1
EC50 [1]: 2.48 µM (active)
AC50 [2]: 15.5 µM (active)
EC50 [3]: 6.45 µM (active)
EC50 [4]: > 160 µM (inactive)
EC50 [5]: 6.58 µM (active)
AC50 (CAAX prenyl protease 1): 5.23 µM (active)
EC50 [6]: > 60 µM (not active)
EC50 [7]: 0.6 µM (active)

COc1ccccc1/C=C1\SC(=S)N(CCC(=O)NNC(=O)c2ccccc2O)C1=O
IC50 (Exodeoxyribonuclease V): > 119 µM (inactive)
IC50 [8]: > 119 µM (inactive)

CCC(=O)NC(c1ccc(Cl)cc1Cl)c1ccc2cccnc2c1O (centres undefined)
EC50 (cells [9]): > 350 µM (not active)
AC50 [10]: 1.33 µM (active)
AC50 [11]: 1.19 µM (active)
EC50 [1]: 0.354 µM (active)
AC50 (HEK293): 4.55 µM (active)
AC50 (INS1): 0.478 µM (active)
IC50 (Exodeoxyribonuclease V): > 119 µM (inactive)
IC50 [8]: > 119 µM (inactive)
EC50 (cells [12]): 7.3 µM (active)
EC50 [4]: 3.86 µM (inconclusive)
EC50 [6]: 0.434 µM (active)
EC50 [7]: 0.296 µM (active)
AC50 [13]: 3.22 µM (active)
AC50 [14]: 28.8 µM (active)
